Measurements reported in patent US12685312B2, “Sulfonamide apyrase inhibitors” (Texas Crop Science, Inc., priority 2022, dated 2026).

System: apyrase
Experiment: Screen for apyrase inhibitors (Method 1, in vitro phosphate-release absorbance assay)
Type: biochemical
Details: inhibitor conc at 1 mM stock, 1 hr room temperature, absorbance 630 nm; rounded average of two assay results
Description: Apyrase inhibitors useful as enhancers of pesticidal activity are assessed using an in vitro assay. The method of Windsor, Bio Techniques 33:1024-1030 (November 2002) was used as follows Screen for Apyrase Inhibitors- 96 well plates were used for the assay: (Greiner bio-one: REF-655901-96 well, PS, F-bottom, Clear, Non-binding) Buffers: • Reaction Buffer: 60 mM Hepes; 3 mM MgCl2, 3 mM CaCl2 and 3 mM ATP (pH 6.5) • Development Buffer A: 2% aqueous ammonium molybdate • Development Buffer B: 11% ascorbic acid in 37.5% TCA in water • Stop buffer C: 2% trisodium citrate in 2% acetic acid solution in water • Add 100 μl of reaction buffer to each well. • Add 10 μl of DMSO (control) or inhibitor/compound or compounds such as […] or orthovanadate to each well. […] A blank cell indicates either <10% observed inhibition or a large difference between repetitions. In certain examples, the lack of observed inhibition is due to a lack of solubility of the compound under assay conditions, rather than a lack of apyrase inhibitory activity.

| SMILES | % Inhibition of Apyrase |
| --- | --- |
| O=C1CCc2cc(S(=O)(=O)Nc3cccc(C(=O)Nc4cccc(C(F)(F)F)c4)c3)ccc2N1 [I-218, 3-((2-oxo-1,2,3,4-tetrahydroquinoline)-6-sulfonamido)-N-(3-(trifluoromethyl)phenyl)benzamide] | 62% |
| O=C(Nc1ccc(F)c(F)c1)c1cccc(S(=O)(=O)Nc2ccc3c(c2)OCO3)c1 [I-220, 3-(N-(benzo[d][1,3]dioxol-5-yl)sulfamoyl)-N-(3,4-difluorophenyl)benzamide] | 68% |
| O=C(Nc1cccc(F)c1)c1ccc(S(=O)(=O)Nc2ccc(Cl)cc2)cc1 [I-223, 4-(N-(4-chlorophenyl)sulfamoyl)-N-(3-fluorophenyl)benzamide] | 74% |
| O=C(Nc1ccc(OC(F)F)cc1)c1ccccc1S(=O)(=O)Nc1cccc(C(F)(F)F)c1 [I-224, N-(4-(difluoromethoxy)phenyl)-2-(N-(3-(trifluoromethyl)phenyl)sulfamoyl)benzamide] | 67% |
| Cc1ccc(NC(=O)c2ccc(S(=O)(=O)Nc3cccc(C(F)(F)F)c3)cc2)c(C)c1 [I-225, N-(2,4-dimethylphenyl)-4-(N-(3-(trifluoromethyl)phenyl)sulfamoyl)benzamide] | 72% |
| Cc1ccc(S(=O)(=O)Nc2cccc(NC(=O)c3ccc4c(c3)OCCO4)c2)cc1C [I-227, N-(3-((3,4-dimethylphenyl)sulfonamido)phenyl)-2,3-dihydrobenzo[b][1,4]dioxine-6-carboxamide] | 71% |
| COc1ccc(NC(=O)c2ccccc2NS(=O)(=O)c2cccc(C(F)(F)F)c2)cc1OC [I-228, N-(3,4-dimethoxyphenyl)-2-((3-(trifluoromethyl)phenyl)sulfonamido)benzamide] | 55% |
| Cc1ccc(NC(=O)c2cccc(S(=O)(=O)Nc3ccc4c(c3)OCO4)c2)cc1C [I-230, 3-(N-(benzo[d][1,3]dioxol-5-yl)sulfamoyl)-N-(3,4-dimethylphenyl)benzamide] | 66% |
| Cc1ccc(NC(=O)c2ccccc2NS(=O)(=O)c2cccc(C(F)(F)F)c2)cc1 [I-231, N-(p-tolyl)-2-((3-(trifluoromethyl)phenyl)sulfonamido)benzamide] | 58% |
| O=C(Nc1cccc(S(=O)(=O)Nc2ccc(Br)cc2)c1)c1ccc2c(c1)OCO2 [I-232, N-(3-(N-(4-bromophenyl)sulfamoyl)phenyl)benzo[d][1,3] dioxole-5-carboxamide] | 65% |
| CN(c1ccccc1)S(=O)(=O)c1ccccc1C(=O)Nc1ccc(C#N)cc1 [I-235, N-(4-cyanophenyl)-2-(N-methyl-N-phenylsulfamoyl)benzamide] | 51% |
| C#Cc1cccc(NC(=O)c2cccc(S(=O)(=O)Nc3ccc(Cl)cc3)c2)c1 [I-237, 3-(N-(4-chlorophenyl)sulfamoyl)-N-(3-ethynylphenyl)benzamide] | 76% |
| Cc1ccccc1NC(=O)c1cccc(S(=O)(=O)Nc2ccc3c(c2)OCO3)c1 [I-238, 3-(N-(benzo[d][1,3]dioxol-5-yl)sulfamoyl)-N-(o-tolyl)benzamide] | 74% |
| O=C(NC12CC3CC(CC(C3)C1)C2)c1cccc(S(=O)(=O)Nc2ccc(Br)cc2)c1 [I-240, N-(adamantan-1-yl)-3-(N-(4-bromophenyl)sulfamoyl)benzamide] | 71% |
| O=C(Nc1ccc(Cl)c([N+](=O)[O-])c1)c1cccc(S(=O)(=O)Nc2cc(C(F)(F)F)ccc2Cl)c1 [I-241, N-(4-chloro-3-nitrophenyl)-3-(N-(2-chloro-5-(trifluoromethyl)phenyl)sulfamoyl)benzamide] | 71% |
| CC1Cc2ccccc2N1S(=O)(=O)c1cccc(C(=O)Nc2ccc(F)c([N+](=O)[O-])c2)c1 (stereo not drawn) [I-242, N-(4-fluoro-3-nitrophenyl)-3-((2-methylindolin-1-yl)sulfonyl)benzamide] | 69% |
| O=C(Nc1ccc(OC(F)F)cc1)c1cccc(S(=O)(=O)Nc2ccc3c(c2)OCO3)c1 [I-243, 3-(N-(benzo[d][1,3]dioxol-5-yl)sulfamoyl)-N-(4-(difluoromethoxy)phenyl)benzamide] | 69% |
| O=C(NC1CCCc2ccccc21)c1cccc(S(=O)(=O)Nc2ccc(Br)cc2)c1 (stereo not drawn) [I-244, 3-(N-(4-bromophenyl)sulfamoyl)-N-(1,2,3,4-tetrahydronaphthalen-1-yl)benzamide] | 68% |
| Cc1ccc(NC(=O)c2cccc(S(=O)(=O)Nc3ccc4c(c3)OCO4)c2)cc1 [I-245, 3-(N-(benzo[d][1,3]dioxol-5-yl)sulfamoyl)-N-(p-tolyl)benzamide] | 67% |
| COc1ccc(NC(=O)c2cccc(S(=O)(=O)Nc3ccc(Cl)cc3)c2)cc1 [I-246, 3-(N-(4-chlorophenyl)sulfamoyl)-N-(4-methoxyphenyl)benzamide] | 66% |
| O=C(c1cccc(S(=O)(=O)Nc2ccc(Br)cc2)c1)N1CCN(c2cccc(Cl)c2)CC1 [I-247, N-(4-bromophenyl)-3-(4-(3-chlorophenyl)piperazine-1-carbonyl)benzenesulfonamide] | 65% |
| CSc1cccc(NC(=O)c2cccc(S(=O)(=O)Nc3ccc4c(c3)OCO4)c2)c1 [I-248, 3-(N-(benzo[d][1,3]dioxol-5-yl)sulfamoyl)-N-(3-(methylthio)phenyl)benzamide] | 64% |
| O=C(Nc1ccccc1F)c1cccc(S(=O)(=O)Nc2ccc3c(c2)OCO3)c1 [I-249, 3-(N-(benzo[d][1,3]dioxol-5-yl)sulfamoyl)-N-(2-fluorophenyl)benzamide] | 63% |
| O=C(Nc1ccc(Br)cc1)c1cccc(S(=O)(=O)Nc2cccc(C(F)(F)F)c2)c1 [I-250, N-(4-bromophenyl)-3-(N-(3-(trifluoromethyl)phenyl)sulfamoyl)benzamide] | 63% |
| COc1ccc([N+](=O)[O-])cc1NC(=O)c1cccc(S(=O)(=O)Nc2cc(C(F)(F)F)ccc2Cl)c1 [I-251, 3-(N-(2-chloro-5-(trifluoromethyl)phenyl)sulfamoyl)-N-(2-methoxy-5-nitrophenyl)benzamide] | 62% |
| Cc1ccc(F)c(NC(=O)c2cccc(S(=O)(=O)Nc3ccc4c(c3)OCO4)c2)c1 [I-252, 3-(N-(benzo[d][1,3]dioxol-5-yl)sulfamoyl)-N-(2-fluoro-5-methylphenyl)benzamide] | 62% |
| COc1cccc(NC(=O)c2cccc(S(=O)(=O)Nc3ccc4c(c3)OCO4)c2)c1 [I-253, 3-(N-(benzo[d][1,3]dioxol-5-yl)sulfamoyl)-N-(3-methoxyphenyl)benzamide] | 61% |
| COc1ccc([N+](=O)[O-])cc1NC(=O)c1cccc(S(=O)(=O)Nc2ccc(Cl)cc2)c1 [I-254, 3-(N-(4-chlorophenyl)sulfamoyl)-N-(2-methoxy-5-nitrophenyl)benzamide] | 61% |
| O=C(Nc1ccc(N2CCOCC2)cc1)c1cccc(S(=O)(=O)Nc2ccc(Br)cc2)c1 [I-255, 3-(N-(4-bromophenyl)sulfamoyl)-N-(4-morpholinophenyl)benzamide] | 61% |
| Cc1nc2cc(NC(=O)c3cccc(S(=O)(=O)Nc4ccc(Br)cc4)c3)ccc2o1 [I-256, 3-(N-(4-bromophenyl)sulfamoyl)-N-(2-methylbenzo[d]oxazol-5-yl)benzamide] | 61% |
